The results in this text go back to article PMC2654246 (The Journal of neuroscience : the official journal of the …, 2009).

For assay [1], the target named is αE262Cβγδ nAChR (Mus musculus, UniProt P02716+P04756+P04760, E282C). The assay is described as follows: Rates of reaction of engineered Cys with MTSEA. In kind it is cell-based. The note with it: MTSEA with ACh (EC80-EC100).
For assay [2], the target named is αG275Cβγδ nAChR (Mus musculus, UniProt P02716+P04756+P04760, G295C). In words: Rates of reaction of engineered Cys with MTSEA. In kind it is cell-based. The note with it: MTSEA with ACh (EC80-EC100).
In assay [3] the target is αI264Cβγδ nAChR (Mus musculus, UniProt P02716+P04756+P04760, I284C). The assay is described as follows: Rates of reaction of engineered Cys with MTSEA. In kind it is cell-based. The note with it: MTSEA with ACh (EC80-EC100).
In assay [4] the target is αT267Cβγδ nAChR (Mus musculus, UniProt P02716+P04756+P04760, T287C). In words: Rates of reaction of engineered Cys with MTSEA. In kind it is cell-based. The note with it: MTSEA with ACh (EC80-EC100).
The target in assay [5] is αP265Cβγδ nAChR (Mus musculus, UniProt P02716+P04756+P04760, P285C). The assay is described as follows: Rates of reaction of engineered Cys with MTSEA. In kind it is cell-based. The note with it: MTSEA with ACh (EC80-EC100).
The subject of assay [6] is nAChR α-subunit single Cys mutants (αβγδ). The note with it: 2 min, αA270C, αL273C, αI274C, αK276C, αY277C.
Assay [7] addresses αV271Cβγδ nAChR (Mus musculus, UniProt P02716+P04756+P04760, V291C). In words: Rates of reaction of engineered Cys with MTSEA. In kind it is cell-based. The note with it: MTSEA with ACh (EC80-EC100).
The target in assay [8] is αP272Cβγδ nAChR (Mus musculus, UniProt P02716+P04756+P04760, P292C). The assay is described as follows: Rates of reaction of engineered Cys with MTSEA. In kind it is cell-based. The note with it: MTSEA with ACh (EC80-EC100).
Assay [9] has as its target αI274Cβγδ nAChR (Mus musculus, UniProt P02716+P04756+P04760, I294C). In words: Rates of reaction of engineered Cys with MTSEA. In kind it is cell-based. The note with it: MTSEA with ACh (EC80-EC100).
Assay [10] concerns the target αL263Cβγδ nAChR (Mus musculus, UniProt P02716+P04756+P04760+P09690, L283C). In words: Rates of reaction of engineered Cys with MTSEA. The note with it: αL263C; MTSEA alone; component not specified, classed slow. In kind it is cell-based.
Assay [11] concerns the target αS268Cβγδ nAChR (Mus musculus, UniProt P02716+P04756+P04760, S288C). The assay is described as follows: Effect of MTS reagent application on subsequent ACh induced current. The note with it: αS268C. In kind it is cell-based.
Assay [12] concerns the target αS266Cβγδ nAChR (Mus musculus, UniProt P02716+P04756+P04760, S286C). In words: Rates of reaction of engineered Cys with MTSEA. In kind it is cell-based.
The target of assay [13] is αS269Cβγδ nAChR (Mus musculus, UniProt P02716+P04756+P04760, S289C). The assay is described as follows: Effect of MTS reagent application on subsequent ACh induced current. In kind it is cell-based. The note with it: αS269C; MTSES 5 mM, 2 min; ACh EC30-70.

Marks after values point to notes of the source that are not given here. A value given as a limit tells only on which side of the number the result lay.

Chain of αS268Cβγδ nAChR (P04756 21-457 S288C): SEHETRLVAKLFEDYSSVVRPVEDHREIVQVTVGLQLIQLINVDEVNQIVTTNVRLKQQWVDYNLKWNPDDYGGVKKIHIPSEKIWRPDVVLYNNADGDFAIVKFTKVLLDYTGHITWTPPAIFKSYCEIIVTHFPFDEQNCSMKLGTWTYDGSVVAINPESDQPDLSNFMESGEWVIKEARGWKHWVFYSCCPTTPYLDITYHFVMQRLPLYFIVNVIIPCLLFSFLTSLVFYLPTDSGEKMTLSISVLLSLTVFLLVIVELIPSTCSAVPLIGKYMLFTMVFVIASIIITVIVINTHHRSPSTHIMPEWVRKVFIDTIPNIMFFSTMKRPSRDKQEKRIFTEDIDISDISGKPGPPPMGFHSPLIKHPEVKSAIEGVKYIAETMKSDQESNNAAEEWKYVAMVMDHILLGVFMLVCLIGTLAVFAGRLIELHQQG
Chain of αS268Cβγδ nAChR (P09690 24-501 partner): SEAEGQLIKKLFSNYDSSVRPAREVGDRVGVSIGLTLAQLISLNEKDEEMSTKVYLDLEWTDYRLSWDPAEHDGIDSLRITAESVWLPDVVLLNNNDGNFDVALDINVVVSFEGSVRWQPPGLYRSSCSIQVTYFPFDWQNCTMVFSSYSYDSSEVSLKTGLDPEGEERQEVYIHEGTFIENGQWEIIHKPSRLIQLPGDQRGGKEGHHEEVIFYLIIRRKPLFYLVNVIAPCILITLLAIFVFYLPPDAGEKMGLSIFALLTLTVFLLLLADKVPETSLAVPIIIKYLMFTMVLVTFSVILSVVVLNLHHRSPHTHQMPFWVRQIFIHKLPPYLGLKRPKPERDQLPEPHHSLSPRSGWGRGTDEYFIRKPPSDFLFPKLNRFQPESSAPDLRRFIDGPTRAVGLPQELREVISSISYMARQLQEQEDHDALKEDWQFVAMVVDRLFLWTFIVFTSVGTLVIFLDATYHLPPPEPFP
Chain of αS268Cβγδ nAChR (P04760 23-519): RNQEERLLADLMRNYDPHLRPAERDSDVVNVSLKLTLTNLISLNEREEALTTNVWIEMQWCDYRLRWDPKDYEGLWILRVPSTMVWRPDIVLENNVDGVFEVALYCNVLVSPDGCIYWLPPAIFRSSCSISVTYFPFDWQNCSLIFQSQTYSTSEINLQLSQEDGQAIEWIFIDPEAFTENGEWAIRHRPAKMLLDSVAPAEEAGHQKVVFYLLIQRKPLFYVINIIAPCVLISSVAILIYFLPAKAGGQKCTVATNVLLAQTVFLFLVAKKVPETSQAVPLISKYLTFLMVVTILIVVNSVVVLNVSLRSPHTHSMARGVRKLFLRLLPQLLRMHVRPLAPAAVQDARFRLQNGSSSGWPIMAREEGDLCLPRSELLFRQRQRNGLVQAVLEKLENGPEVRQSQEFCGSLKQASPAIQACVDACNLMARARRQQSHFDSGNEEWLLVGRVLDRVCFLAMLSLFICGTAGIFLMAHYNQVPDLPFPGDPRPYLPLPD
Chain of αS268Cβγδ nAChR (P02716 25-520): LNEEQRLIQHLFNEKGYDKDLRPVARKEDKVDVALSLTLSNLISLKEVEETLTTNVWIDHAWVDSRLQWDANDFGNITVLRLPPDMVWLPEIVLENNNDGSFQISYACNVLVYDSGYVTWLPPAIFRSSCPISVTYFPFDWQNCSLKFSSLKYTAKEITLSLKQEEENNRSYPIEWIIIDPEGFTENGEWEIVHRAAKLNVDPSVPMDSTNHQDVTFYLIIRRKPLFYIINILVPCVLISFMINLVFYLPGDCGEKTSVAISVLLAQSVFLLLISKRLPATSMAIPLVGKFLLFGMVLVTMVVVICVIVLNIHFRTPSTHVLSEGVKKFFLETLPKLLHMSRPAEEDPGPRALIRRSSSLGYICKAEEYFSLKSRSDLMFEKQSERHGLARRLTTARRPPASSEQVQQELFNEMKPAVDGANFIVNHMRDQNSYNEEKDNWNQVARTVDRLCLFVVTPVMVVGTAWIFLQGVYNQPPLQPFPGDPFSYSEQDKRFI
Chain of αS266Cβγδ nAChR (P04756 21-457 S286C): as the sequence (P04756 21-457 S288C) above, with S266C, C268S counted along it
Chain of αS266Cβγδ nAChR (P09690 24-501 partner): as the sequence (P09690 24-501 partner) above
Chain of αS266Cβγδ nAChR (P04760 23-519): as the sequence (P04760 23-519) above
Chain of αS266Cβγδ nAChR (P02716 25-520, stated change not applied): as the sequence (P02716 25-520) above

For `CS(=O)(=O)SCCN` [MTSEA, methanethiosulfonate ethylammonium], the “τ in the presence of ACh, second order reaction rate constant” value in assay [1] was 23,000 ± 2,100** M^-1s^-1; in [2] it was 22.2 ± 3.3 M⁻¹ s⁻¹; in assay [3] it was 22.8 ± 6.5 M⁻¹ s⁻¹; in [4] it was 5,450 ± 86*** M^-1s^-1; in [5], 3,940 ± 620*** M^-1s^-1; in [7], 398 ± 73*** M^-1s^-1. Besides, the “τ in the presence of ACh, second order reaction rate constant” value in [8] is on record as 426 ± 66* M^-1s^-1; in assay [9] it was 8.7 ± 2.6*** M^-1s^-1; in assay [12] (MTSEA with ACh (EC80-EC100)), 6,970 ± 1,800 M^-1s^-1. Further, the “effect of MTSEA application on ACh induced currents” value in assay [6] (MTSEA 2 mM, absence of ACh, αS268C) was “no effect”. For the same compound, in [10], the second-order rate constant is recorded as < 1,000 M^-1s^-1. For the same compound, the “reaction of MTSEA at this position (successive MTSEA then MTSES application)” value in [11] (MTSEA 2 mM, 2 min followed by MTSES 5 mM, 2 min on the same oocyte) is on record as “does not react at this position”. Besides, the “τ, second order reaction rate constant” value in assay [12] (MTSEA applied in the absence of ACh) is 12,200 ± 2,200 M^-1s^-1.

As for `CS(=O)(=O)SCCS(=O)(=O)[O-].[Na+]` [MTSES, methanethiosulfonate ethylsulfonate], the “% increase of subsequent ACh induced current amplitude” value in assay [13] is recorded as 177 ± 37%; in assay [11] (MTSES 5 mM, 2 min, ACh EC30-70), 85 ± 12%. The “effect of MTSES application on ACh induced currents” value in assay [6] (MTSES 5 mM) is listed as “no functional effect”. Besides, the “effect of MTSES applied after MTSEA on subsequent ACh induced currents” value in assay [11] (compared to MTSES applied alone) was “similarly increased subsequent ACh induced currents”.
